Data taken from patent publication US5534508A, “Cephem compounds and antimicrobial agents” (Katayama Seiyakusyo Co., Ltd., priority 1993, dated 1996).
≈ marks a conversion by molar mass, not a printed value.

Experiments:
Type in all cases: cell-based
S. aureus 209p JC-1 = assay: MIC against standard strains (Table 1), S. aureus 209p JC-1; settings: Staphylococcus aureus, Muller-Hinton agar, overnight 37° C., read-out: MIC (minimum growth inhibitory concentration)
Procedure: (§1) The minimum growth inhibitory concentration (MIC, μg/ml) of the compounds for each of the 25 standard laboratory strains (standard strains) shown in Table 1 was determined in accordance with the standard method of the Japan Chemotherapical Society (Chemotherapy, 29, 76-79 (1981) under "Re-revision of the measuring methods of minimum growth inhibitory concentration (MIC)").
(§2) That is, by using each test strain cultured overnight at 37° C. in a Muller-Hinton broth, there was prepared a bacterial solution with a cell density of 1×10^6 CFU/ml in the same broth. The bacterial solution was inoculated into the Muller-Hinton agar media each containing respectively one test agent (i.e., compound) and, after overnight incubation at 37° C., the minimum concentration that inhibited growth of the bacteria was determined and expressed as MIC.
(§3) Staphylococcus aureus 167 and Staphylococcus aureus 195 used in the test were MRSA. CTM (cefotiam) and FMOX (flomoxef) were used as the control agents.

S. aureus Smith = assay: MIC against standard strains (Table 1), S. aureus Smith; settings: Staphylococcus aureus, Muller-Hinton agar, overnight 37° C., read-out: MIC (minimum growth inhibitory concentration)
Procedure: as §1, §2, §3

S. aureus 167 = assay: MIC against standard strains (Table 1), S. aureus 167 (MRSA); settings: Staphylococcus aureus, Muller-Hinton agar, overnight 37° C., read-out: MIC (minimum growth inhibitory concentration)
Procedure: as §1, §2, §3

S. aureus 195 = assay: MIC against standard strains (Table 1), S. aureus 195 (MRSA); settings: Staphylococcus aureus, Muller-Hinton agar, overnight 37° C., read-out: MIC (minimum growth inhibitory concentration)
Procedure: as §1, §2, §3

S. epidemidis IAM 1296 = assay: MIC against standard strains (Table 1), S. epidemidis IAM 1296; settings: Muller-Hinton agar, overnight 37° C., read-out: MIC (minimum growth inhibitory concentration)
Procedure: as §1, §2, §3

M. luteus ATCC 9341 = assay: MIC against standard strains (Table 1), M. luteus ATCC 9341; settings: Micrococcus luteus, ATCC9341, Muller-Hinton agar, overnight 37° C., read-out: MIC (minimum growth inhibitory concentration)
Procedure: as §1, §2, §3

B. subtilis ATCC 6633 = assay: MIC against standard strains (Table 1), B. subtilis ATCC 6633; settings: Bacillus subtilis, ATCC6633, Muller-Hinton agar, overnight 37° C., read-out: MIC (minimum growth inhibitory concentration)
Procedure: as §1, §2, §3

E. coli JC-2 = assay: MIC against standard strains (Table 1), E. coli JC-2; settings: Escherichia coli, JC2, Muller-Hinton agar, overnight 37° C., read-out: MIC (minimum growth inhibitory concentration)
Procedure: as §1, §2, §3

E. coli CSH2(RK1) = assay: MIC against standard strains (Table 1), E. coli CSH2(RK1); settings: Escherichia coli, read-out: MIC (minimum growth inhibitory concentration)
Procedure: as §1, §2, §3

E. coli CSH2(RE45) = assay: MIC against standard strains (Table 1), E. coli CSH2(RE45); settings: Escherichia coli, read-out: MIC (minimum growth inhibitory concentration)
Procedure: as §1, §2, §3

K. pneuminiae IFO 3317 = assay: MIC against standard strains (Table 1), K. pneuminiae IFO 3317; settings: Muller-Hinton agar, overnight 37° C., read-out: MIC (minimum growth inhibitory concentration)
Procedure: as §1, §2, §3

K. pneuminiae No. 42 = assay: MIC against standard strains (Table 1), K. pneuminiae No. 42; settings: Muller-Hinton agar, overnight 37° C., read-out: MIC (minimum growth inhibitory concentration)
Procedure: as §1, §2, §3

P. mirabilis IFO 3849 = assay: MIC against standard strains (Table 1), P. mirabilis IFO 3849; settings: Proteus mirabilis, IFO3849, Muller-Hinton agar, overnight 37° C., read-out: MIC (minimum growth inhibitory concentration)
Procedure: as §1, §2, §3

P. vulugaris OX-19 = assay: MIC against standard strains (Table 1), P. vulugaris OX-19; settings: Muller-Hinton agar, overnight 37° C., read-out: MIC (minimum growth inhibitory concentration)
Procedure: as §1, §2, §3

M. morganii IFO 3848 = assay: MIC against standard strains (Table 1), M. morganii IFO 3848; settings: Morganella morganii, IFO3848, Muller-Hinton agar, overnight 37° C., read-out: MIC (minimum growth inhibitory concentration)
Procedure: as §1, §2, §3

S. marcescens IAM 1184 = assay: MIC against standard strains (Table 1), S. marcescens IAM 1184; settings: Serratia marcescens, IAM1184, Muller-Hinton agar, overnight 37° C., read-out: MIC (minimum growth inhibitory concentration)
Procedure: as §1, §2, §3

S. marcescens No. 16-2 = assay: MIC against standard strains (Table 1), S. marcescens No. 16-2; settings: Serratia marcescens, NO.162, Muller-Hinton agar, overnight 37° C., read-out: MIC (minimum growth inhibitory concentration)
Procedure: as §1, §2, §3

E. cloacae ATCC 13407 = assay: MIC against standard strains (Table 1), E. cloacae ATCC 13407; settings: Enterobacter cloacae, ATCC13407, Muller-Hinton agar, overnight 37° C., read-out: MIC (minimum growth inhibitory concentration)
Procedure: as §1, §2, §3

E. cloacae Nek39 = assay: MIC against standard strains (Table 1), E. cloacae Nek39; settings: Enterobacter cloacae, Muller-Hinton agar, overnight 37° C., read-out: MIC (minimum growth inhibitory concentration)
Procedure: as §1, §2, §3

C. freundii ATCC 8090 = assay: MIC against standard strains (Table 1), C. freundii ATCC 8090; settings: Citrobacter freundii, ATCC8090, Muller-Hinton agar, overnight 37° C., read-out: MIC (minimum growth inhibitory concentration)
Procedure: as §1, §2, §3

P. aeruginosa NCTC 10490 = assay: MIC against standard strains (Table 1), P. aeruginosa NCTC 10490; settings: Pseudomonas aeruginosa, NCTC10490, Muller-Hinton agar, overnight 37° C., read-out: MIC (minimum growth inhibitory concentration)
Procedure: as §1, §2, §3

P. aeruginosa AKR17 = assay: MIC against standard strains (Table 1), P. aeruginosa AKR17; settings: Pseudomonas aeruginosa, Muller-Hinton agar, overnight 37° C., read-out: MIC (minimum growth inhibitory concentration)
Procedure: as §1, §2, §3

P. cepacia CN 9113 = assay: MIC against standard strains (Table 1), P. cepacia CN 9113; settings: Burkholderia cepacia, CN9113, Muller-Hinton agar, overnight 37° C., read-out: MIC (minimum growth inhibitory concentration)
Procedure: as §1, §2, §3

A. faecalis ATCC 3750 = assay: MIC against standard strains (Table 1), A. faecalis ATCC 3750; settings: Alcaligenes faecalis, ATCC3750, Muller-Hinton agar, overnight 37° C., read-out: MIC (minimum growth inhibitory concentration)
Procedure: as §1, §2, §3

A. calcoaceticos T59 = assay: MIC against standard strains (Table 1), A. calcoaceticos T59; settings: Muller-Hinton agar, overnight 37° C., read-out: MIC (minimum growth inhibitory concentration)
Procedure: as §1, §2, §3

clinically isolated MRSA = assay: Antibacterial potency against clinically isolated MRSA (47 strains); settings: Staphylococcus aureus; for MIC50: concentration inhibiting growth of 50% of 47 clinically isolated MRSA strains; for MIC90: concentration inhibiting growth of 90% of 47 clinically isolated MRSA strains
Procedure: A test on the antibacterial potency against clinically isolated MRSA was conducted in the following way.
That is, using 47 strains of clinically isolated MRSA, MIC was determined for each of the test strains in accordance with the standard method of the Japan Chemotherapical Society as in Test Example 1, and the minimum growth inhibitory concentration which inhibited growth of 50% of the strains tested was expressed as MIC50 (μg/ml), and the minimum growth inhibitory concentration which inhibited growth of 90% of the strains tested was expressed as MIC90 (μg/ml).
In this test, FMOX was used as the control agent.

| Structure (SMILES) | MIC (S. aureus 209p JC-1) | MIC (S. aureus Smith) | MIC (S. aureus 167) | MIC (S. aureus 195) | MIC (S. epidemidis IAM 1296) | MIC (M. luteus ATCC 9341) | MIC (B. subtilis ATCC 6633) | MIC (E. coli JC-2) | MIC (E. coli CSH2(RK1)) | MIC (E. coli CSH2(RE45)) | MIC (K. pneuminiae IFO 3317) | MIC (K. pneuminiae No. 42) | MIC (P. mirabilis IFO 3849) | MIC (P. vulugaris OX-19) | MIC (M. morganii IFO 3848) | MIC (S. marcescens IAM 1184) | MIC (S. marcescens No. 16-2) | MIC (E. cloacae ATCC 13407) | MIC (E. cloacae Nek39) | MIC (C. freundii ATCC 8090) | further results |
| --- | --- | --- | --- | --- | --- | --- | --- | --- | --- | --- | --- | --- | --- | --- | --- | --- | --- | --- | --- | --- | --- |
| NC(=O)c1cc[n+](C/C=C/C2=C(C(=O)[O-])N3C(=O)[C@@H](NC(=O)/C(=N\O)c4csc(N)n4)[C@H]3SC2)cc1 [Compound 19, 7β-[2-(2-aminothiazol-4-yl)-2-syn-hydroxyiminoacetamido]-3-[(E)-3-(4-carbamoylpyridinio)-1-propenyl]-3-cephem-4-carboxylate] | 0.1 µg/mL (≈ 0.189 µM) | 0.2 µg/mL (≈ 0.378 µM) | 100 µg/mL (≈ 189 µM) | 3.13 µg/mL (≈ 5.91 µM) | 0.05 µg/mL (≈ 0.0944 µM) | 0.05 µg/mL (≈ 0.0944 µM) | 0.2 µg/mL (≈ 0.378 µM) | 0.1 µg/mL (≈ 0.189 µM) | 0.2 µg/mL (≈ 0.378 µM) | 0.1 µg/mL (≈ 0.189 µM) | 0.05 µg/mL (≈ 0.0944 µM) | 0.1 µg/mL (≈ 0.189 µM) | 0.2 µg/mL (≈ 0.378 µM) | 0.1 µg/mL (≈ 0.189 µM) | 0.05 µg/mL (≈ 0.0944 µM) | 0.1 µg/mL (≈ 0.189 µM) | 12.5 µg/mL (≈ 23.6 µM) | 0.39 µg/mL (≈ 0.736 µM) | 12.5 µg/mL (≈ 23.6 µM) | 0.05 µg/mL (≈ 0.0944 µM) | MIC (P. aeruginosa NCTC 10490): 1.56 µg/mL (≈ 2.95 µM); MIC (P. aeruginosa AKR17): > 100 µg/mL; MIC (P. cepacia CN 9113): > 100 µg/mL; MIC (A. faecalis ATCC 3750): 1.56 µg/mL (≈ 2.95 µM); MIC (A. calcoaceticos T59): 3.13 µg/mL (≈ 5.91 µM); MIC50 (clinically isolated MRSA): 2.92 µg/mL (≈ 5.51 µM); MIC90 (clinically isolated MRSA): 17.4 µg/mL (≈ 32.8 µM) |
| NC(=O)c1ccc[n+](C/C=C/C2=C(C(=O)[O-])N3C(=O)[C@@H](NC(=O)/C(=N\O)c4csc(N)n4)[C@H]3SC2)c1 [Compound 18, 7β-[2-(2-aminothiazol-4-yl)-2-syn-hydroxyiminoacetamido]-3-[(E)-3-(3-carbamoylpyridinio)-1-propenyl]-3-cephem-4-carboxylate] | 0.1 µg/mL (≈ 0.189 µM) | 0.1 µg/mL (≈ 0.189 µM) | 50 µg/mL (≈ 94.4 µM) | 3.13 µg/mL (≈ 5.91 µM) | 0.05 µg/mL (≈ 0.0944 µM) | 0.05 µg/mL (≈ 0.0944 µM) | 0.1 µg/mL (≈ 0.189 µM) | 0.05 µg/mL (≈ 0.0944 µM) | 0.1 µg/mL (≈ 0.189 µM) | 0.05 µg/mL (≈ 0.0944 µM) | 0.05 µg/mL (≈ 0.0944 µM) | 0.1 µg/mL (≈ 0.189 µM) | 0.1 µg/mL (≈ 0.189 µM) | 0.1 µg/mL (≈ 0.189 µM) | 0.05 µg/mL (≈ 0.0944 µM) | 0.05 µg/mL (≈ 0.0944 µM) | 12.5 µg/mL (≈ 23.6 µM) | 0.1 µg/mL (≈ 0.189 µM) | 6.25 µg/mL (≈ 11.8 µM) | 0.05 µg/mL (≈ 0.0944 µM) | MIC (P. aeruginosa NCTC 10490): 1.56 µg/mL (≈ 2.95 µM); MIC (P. aeruginosa AKR17): > 100 µg/mL; MIC (P. cepacia CN 9113): > 100 µg/mL; MIC (A. faecalis ATCC 3750): 0.78 µg/mL (≈ 1.47 µM); MIC (A. calcoaceticos T59): 3.13 µg/mL (≈ 5.91 µM); MIC50 (clinically isolated MRSA): 2.63 µg/mL (≈ 4.97 µM); MIC90 (clinically isolated MRSA): 22.2 µg/mL (≈ 41.9 µM) |
